Test results: patent publication US20210052600A1, “THERAPEUTIC AGENTS FOR STRESS URINARY INCONTINENCE AND INCOTINENCE OF FECES” (Takeda Pharmaceutical Company Limited, priority 2017, published 2021)

Key:
[1] = test system: urethral resistance increasing effect of Compound A′; assay: Influence of antagonists (SB 242084, methiothepin) on urethral resistance increasing effect of Compound A′ in rats; format: in vivo, rat; conditions: mean ± SEM; for LPP Post: 30 minutes after Compound A′; for LPP Increase: Post minus Pre; for LPP Pre: before administration
Experimental: Ninety female rats of SD strain were used. […] Isoflurane inhalation was added during the surgery, if necessary. In the experiment with intrathecal administration, the dura mater was exposed by laminectomy and then partially opened by incision, through which a catheter (PE-10) filled with saline was then implanted at the level of the L6-S1 site, followed by the closing of the incision. After opening of the abdomen, a catheter (PE-90) was inserted into the bladder. In order to secure reduced urethral resistance, unilateral nerve to iliococcygeus and pubococcygeus muscles was transected. For intraduodenal administration, another catheter (PE-50) was inserted into the duodenum in advance. The abdominal muscle and skin were each closed with sutures. Two (right and left) sites of abdominal skin near the diaphragm were cut to expose abdominal muscle. The bladder was emptied through the catheter, followed by the injection of 0.2 to 0.3 mL of Evans blue solution. Change in intravesical pressure was recorded using the bladder catheter via a pressure transducer, an electric signal amplifier, and an analog-to-digital converter. While change in intravesical pressure was recorded, the presence or absence of fluid leakage from the urethral orifice was observed under the electrical stimulation of the exposed abdominal muscle using an electrical stimulator and an isolator. […] The peak of the intravesical pressure during the stimulation of the abdominal muscle was measured, and the lowest pressure at which the fluid leakage was observed among the trials was defined as LPP for the electrical abdominal muscle stimulation method. In order to examine whether the urethral resistance increasing effect of Compound A′ is based on its agonistic potency on 5-HT2C receptors, SB 242084, methiothepin, or a vehicle was intravenously administered, and Compound A′ or a vehicle was intraduodenally administered 5 minutes later. SB 242084 was dissolved in a mixed solution of N,N-dimethylacetamide and polyethylene glycol 400 (1:1) and administered at 0.03 mg/0.5 mL/kg, 0.1 mg/0.5 mL/kg and 0.3 mg/0.5 mL/kg. Methiothepin was dissolved in saline and administered at 0.03 mg/0.5 mL/kg. 0.1 mg/0.5 mL/kg and 0.3 mg/0.5 mL/kg. Compound A′ was suspended in 0.5% MC and administered at 3 mg/mL/kg. LPP was measured again 30 minutes after Compound A′ administration. In order to examine where Compound A′ works in the body to increase urethral resistance, the blocking of the effect of Compound A′ was confirmed by blocking the functions of Compound A′ by giving methiothepin at a particular site in the body. Particularly, in the experiment with intrathecal administration, methiothepin or a vehicle was intrathecally administered, and Compound A′ or a vehicle was intraduodenally administered 5 minutes later. Methiothepin was dissolved in saline and 20 μL of the obtained solution was administered. Compound A′ was suspended in 0.5% MC and administered at 3 mg/mL/kg. LPP was measured again 30 minutes after Compound A′ administration.
Regarding change in LPP before and after drug administration, the differences between the mean values of the Compound A′-treated and vehicle-treated groups were analyzed by the Student's t test or the Welch's test. In order to analyze the influence of the antagonists on the effect of Compound A′, the differences between the mean values of the SB 242084- or methiothepin- and Compound A′-administered group and the vehicle- and Compound A′-administered group were analyzed by the one-tailed Williams' test.

[2] = test system: urethra-closing reflex response; assay: Urethra-closing reflex response induced by intravesical pressure rise in rats; format: in vivo, rat; conditions: 3 mg/kg i.d., mean ± SEM
Experimental: Thirty-two female rats of SD strain were used. The rats were anesthetized with urethane. Isoflurane inhalation was added during the surgery, if necessary. Their spinal cord was transected at the T8-T9 (the eighth thoracic cord—the ninth thoracic cord) level to eliminate the reflex voiding and to inhibit the transition from the urine storage phase to the voiding phase in the voiding cycle. After opening of the abdomen, the bladder neck was ligated with suture, and a catheter (PE-100) was inserted into the bladder. The bladder catheter was connected to a pressure transducer and a saline-containing reservoir via three-way stopcocks. A microtip transducer catheter was inserted from the urethral orifice toward the bladder so that its transducer was inserted into the urethra. Local change in pressure within the urethra (intraurethral pressure) was recorded via an electric signal amplifier and an analog-to-digital converter. […] Then, the reservoir was brought back to the original position to adjust the intravesical pressure to its baseline. Such change in intraurethral pressure induced by intravesical pressure rise was repeatedly measured, and the mean value from the last 2 trials was used as a Pre value. The vehicle used was 0.5% MC. […] Thirty minutes after administration, the change in intraurethral pressure induced by intravesical pressure rise was measured again and used as a Post value. The average value before intravesical pressure rise was subtracted from the average value during intravesical pressure rise, and the subtracted value was used as urethra-closing reflex response. The ratio of the Post value to the Pre value was calculated.

[3] = Body weight of obese rats (DIO-F344) under continuous subcutaneous administration and effective plasma concentration; format: in vivo, rat; conditions: for Change in body weight (% change): mean ± SEM
Experimental: Forty male DIO-F344 rats bred with high fat diet (42 kcal % fat) were used. On the day before surgery, the rats were grouped on the basis of their body weight. Compound A′ and Compound B′ were each dissolved in saline. Osmotic pumps filled with the Compound A′ or Compound B′ solution were subcutaneously implanted in the rats under isoflurane anesthesia. The body weight just after surgery was used as a Pre value, and the body weight was measured every day until 14 days after surgery. Regarding the averages in the body weight on Day 14, the difference in the mean averages of the drug-treated group and the vehicle-treated group was analyzed by the one-tailed Williams' test.
The average Day 14 plasma concentration from the values of each rat measured in the morning and afternoon was used as a plasma concentration for the animal. The rate of change in body weight was calculated from the values measured just after and 14 days after osmotic pump implantation. The rate (average rate) of change of the vehicle group was subtracted from that of each drug-administered rat to plot the plasma concentration and the change in body weight. The plasma concentration at which the drug lowered the body weight by 3.8% was calculated by linear regression analysis.

[4] = test system: urethra-closing response; assay: MT (threshold inducing urethra-closing response) under transcranial magnetic stimulation in healthy female volunteers; format: in vivo, human
Experimental: The test subjects were healthy female volunteers having a body weight of at least 45 kg (average: 50.91 kg, standard deviation: 3.346) and a BMI value of 18.5 kg/m^2 to 25.0 kg/m^2 (average: 19.57 kg/m^2, standard deviation: 0.929).
A washout period of at least 7 days was provided between the treatments.
A capsule containing 40 mg of duloxetine was orally administered as duloxetine together with water. A placebo capsule containing saccharose and spherical starch granules was orally administered as a placebo for duloxetine together with water.
Specifically, during the TMS, the output of a magnetic stimulator (Magstim Rapid Square, manufactured by Magstim Co., Ltd.) was increased by 5% each time using 110 mm double cone coil, and the minimum output at which urethra-closing response occurred abruptly was determined and used as MT (%). The urethra-closing response was detected by measuring contractile responses within the urethra. The contractile response within the urethra was measured using Duet Logic G2 (manufactured by Mediwatch Ltd.) and UniTip (manufactured by Unisensor AG). MT was measured again after administration of each drug, and the rate of change (%) from the baseline was calculated. The rate of change was determined by dividing MT after administration of each drug by MT before administration.

[5] = SB 242084 0 mg/kg i.v. (vehicle) + Compound A′ 3 mg/kg i.d.
[6] = methiothepin 0 μg intrathecal (vehicle) + Compound A′ 3 mg/kg i.d.
[7] = methiothepin 0 mg/kg i.v. (vehicle) + Compound A′ 3 mg/kg i.d.

CC(C)N(C)c1cnc2c(n1)OCCNC2.Cl [Compound A′, N-methyl-N-(1-methylethyl)-6,7,8,9-tetrahydropyrazino[2,3-f][1,4]oxazeine-3-amine]
LPP Post [1, 5]: 72.4 ± 9.5 cmH2O
LPP Increase [1, 5]: 26.4 ± 5.9 cmH2O
LPP Pre [1, 5]: 46.0 ± 5.1 cmH2O
LPP Post [1, 6]: 72.1 ± 5.7 cmH2O
LPP Increase [1, 6]: 31.8 ± 6.2 cmH2O
LPP Pre [1, 6]: 40.3 ± 5.6 cmH2O
LPP Post [1, 7]: 61.0 ± 8.3 cmH2O
LPP Increase [1, 7]: 15.1 ± 4.0 cmH2O
LPP Pre [1, 7]: 45.9 ± 4.4 cmH2O
Urethra-closing reflex response Post ([2]; 30 minutes after administration, intravesical pressure rise by 50 cm H2O): 10.40 ± 1.78 cmH2O
Urethra-closing reflex response Pre ([2]; before administration, intravesical pressure rise by 50 cm H2O): 3.58 ± 0.42 cmH2O
Urethra-closing reflex response Ratio (Post/Pr) ([2]; ratio of Post value to Pre value): 2.82 ± 0.29
Change in body weight (% change) ([3]; 1.35 mg/animal/day s.c. osmotic pump, day 3): −1.5 ± 0.5 % change
Change in body weight (% change) ([3]; 1.35 mg/animal/day s.c. osmotic pump, day 7): −2.3 ± 0.8 % change
Change in body weight (% change) ([3]; 1.35 mg/animal/day s.c. osmotic pump, day 10): −4.5 ± 0.8 % change
Change in body weight (% change) ([3]; 1.35 mg/animal/day s.c. osmotic pump, day 14): −4.7 ± 0.8 % change
Change in body weight (% change) ([3]; 4.5 mg/animal/day s.c. osmotic pump, day 3): −0.6 ± 0.2 % change
Change in body weight (% change) ([3]; 4.5 mg/animal/day s.c. osmotic pump, day 7): −2.4 ± 0.4 % change
Change in body weight (% change) ([3]; 4.5 mg/animal/day s.c. osmotic pump, day 10): −3.9 ± 0.4 % change
Change in body weight (% change) ([3]; 4.5 mg/animal/day s.c. osmotic pump, day 14): −4.6 ± 0.6 % change
Change in body weight (% change) ([3]; 13.5 mg/animal/day s.c. osmotic pump, day 3): −2.7 ± 0.2 % change
Change in body weight (% change) ([3]; 13.5 mg/animal/day s.c. osmotic pump, day 7): −4.8 ± 0.3 % change
Change in body weight (% change) ([3]; 13.5 mg/animal/day s.c. osmotic pump, day 10): −6.9 ± 0.5 % change
Change in body weight (% change) ([3]; 13.5 mg/animal/day s.c. osmotic pump, day 14): −7.8 ± 0.5 % change
plasma concentration at which the drug lowered the body weight by 3.8% ([3]; DIO-F344 rats, day 14, vehicle-subtracted, linear regression analysis): 670 ng/mL
maximum change from baseline in MT in response to TMS ([4]; 20 mg group, at 0.5 hours post dose): −8.1%
MT of the urethra-closing response in response to TMS, Mean ([4]; 20 mg single oral dose, 0.5 hr): 58.1%
Rate of change from baseline of MT of the urethra-closing response in response to TMS, Mean ([4]; 20 mg single oral dose, 0.5 hr): −8.1%
MT of the urethra-closing response in response to TMS, Mean ([4]; 20 mg single oral dose, 2 hr): 59.0%
Rate of change from baseline of MT of the urethra-closing response in response to TMS, Mean ([4]; 20 mg single oral dose, 2 hr): −7.3%
MT of the urethra-closing response in response to TMS, Mean ([4]; 20 mg single oral dose, 6 hr): 64.2%
Rate of change from baseline of MT of the urethra-closing response in response to TMS, Mean ([4]; 20 mg single oral dose, 6 hr): −2.1%
MT of the urethra-closing response in response to TMS, Mean ([4]; 20 mg single oral dose, Predose): 66.3%
maximum change from baseline in MT in response to TMS ([4]; 90 mg group, at 3 hours post dose): −17.2%
MT of the urethra-closing response in response to TMS, Mean ([4]; 90 mg single oral dose, 0.5 hr): 55.9%
Rate of change from baseline of MT of the urethra-closing response in response to TMS, Mean ([4]; 90 mg single oral dose, 0.5 hr): −14.1%
MT of the urethra-closing response in response to TMS, Mean ([4]; 90 mg single oral dose, 2 hr): 52.8%
Rate of change from baseline of MT of the urethra-closing response in response to TMS, Mean ([4]; 90 mg single oral dose, 2 hr): −17.2%
MT of the urethra-closing response in response to TMS, Mean ([4]; 90 mg single oral dose, 6 hr): 56.3%
Rate of change from baseline of MT of the urethra-closing response in response to TMS, Mean ([4]; 90 mg single oral dose, 6 hr): −13.7%
MT of the urethra-closing response in response to TMS, Mean ([4]; 90 mg single oral dose, Predose): 70.0%
